Measured values from PubChem BioAssay (NCI).
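At the GI50, growth is halved. TGI is the concentration that stops growth completely.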

What was measured:
Assay in all cases: NCI anticancer screen, dose series, 384-well format
OVCAR-8 ovarian = test system: OVCAR-8 ovarian
HL-60(TB) leukemia = test system: HL-60(TB) leukemia
HCT-15 colon = test system: HCT-15 colon
ACHN renal = test system: ACHN renal
A549 NSCLC = test system: A549 NSCLC
SF-268 CNS = test system: SF-268 CNS
RXF 393 renal = test system: RXF 393 renal
NCI-H226 lung = test system: NCI-H226 lung
UACC-62 melanoma = test system: UACC-62 melanoma
SF-539 CNS = test system: SF-539 CNS
SN12C renal = test system: SN12C renal
786-0 renal = test system: 786-0 renal
PC-3 prostate = test system: PC-3 prostate
MDA-MB-468 breast = test system: MDA-MB-468 breast
SW-620 colon = test system: SW-620 colon
NCI/ADR-RES ovarian = test system: NCI/ADR-RES ovarian
SK-OV-3 ovarian = test system: SK-OV-3 ovarian
SF-295 CNS = test system: SF-295 CNS
SNB-75 CNS = test system: SNB-75 CNS
A498 renal = test system: A498 renal
MALME-3M melanoma = test system: MALME-3M melanoma
UO-31 renal = test system: UO-31 renal
CCRF-CEM leukemia = test system: CCRF-CEM leukemia
DU-145 prostate = test system: DU-145 prostate
OVCAR-3 ovarian = test system: OVCAR-3 ovarian
CAKI-1 renal = test system: CAKI-1 renal
M14 melanoma = test system: M14 melanoma
BT-549 breast = test system: BT-549 breast
HT29 colon = test system: HT29 colon
NCI-H23 lung = test system: NCI-H23 lung
RPMI-8226 leukemia = test system: RPMI-8226 leukemia
HOP-62 NSCLC = test system: HOP-62 NSCLC
MOLT-4 leukemia = test system: MOLT-4 leukemia
NCI-H522 lung = test system: NCI-H522 lung
HS 578T breast = test system: HS 578T breast
KM12 colon = test system: KM12 colon
LOX IMVI melanoma = test system: LOX IMVI melanoma
MCF7 breast = test system: MCF7 breast
U251 glioblastoma = test system: U251 glioblastoma
HCT-116 colon = test system: HCT-116 colon
SNB-19 CNS = test system: SNB-19 CNS
UACC-257 melanoma = test system: UACC-257 melanoma
SK-MEL-28 melanoma = test system: SK-MEL-28 melanoma
NCI-H460 NSCLC = test system: NCI-H460 NSCLC
HCC-2998 colon = test system: HCC-2998 colon
NCI-H322M lung = test system: NCI-H322M lung
IGROV1 ovarian = test system: IGROV1 ovarian
EKVX NSCLC = test system: EKVX NSCLC
MDA-MB-435 melanoma = test system: MDA-MB-435 melanoma
OVCAR-5 ovarian = test system: OVCAR-5 ovarian
T-47D breast = test system: T-47D breast
K-562 leukemia = test system: K-562 leukemia
MDA-MB-231 breast = test system: MDA-MB-231 breast
HOP-92 NSCLC = test system: HOP-92 NSCLC
OVCAR-4 ovarian = test system: OVCAR-4 ovarian
TK-10 renal = test system: TK-10 renal
COLO 205 colon = test system: COLO 205 colon
SK-MEL-5 melanoma = test system: SK-MEL-5 melanoma

O=C(CCBr)N1CCN(C(=O)CCBr)CC1
GI50 (OVCAR-8 ovarian): 37.2 µM
GI50 (HL-60(TB) leukemia): 2.06 µM
TGI (HL-60(TB) leukemia): 5.92 µM
GI50 (HCT-15 colon): 40.8 µM
GI50 (ACHN renal): 24.6 µM
TGI (ACHN renal): 87.4 µM
GI50 (A549 NSCLC): 57.6 µM
GI50 (SF-268 CNS): 13.7 µM
GI50 (RXF 393 renal): 44.4 µM
GI50 (NCI-H226 lung): 56.3 µM
GI50 (UACC-62 melanoma): 15.1 µM
GI50 (SF-539 CNS): 24 µM
TGI (SF-539 CNS): 99 µM
GI50 (SN12C renal): 18.3 µM
GI50 ([…]-0 renal): 33.1 µM
GI50 (PC-3 prostate): 82 µM
GI50 (MDA-MB-468 breast): 9.42 µM
TGI (MDA-MB-468 breast): 49 µM
GI50 (SW-620 colon): 87.6 µM
GI50 (NCI/ADR-RES ovarian): 52.2 µM
GI50 (SK-OV-3 ovarian): 45.2 µM
GI50 (SF-295 CNS): 21.8 µM
TGI (SF-295 CNS): 64.9 µM
GI50 (SNB-75 CNS): 20.9 µM
GI50 (A498 renal): 70.1 µM
GI50 (MALME-3M melanoma): 98.8 µM
GI50 (UO-31 renal): 74.1 µM
GI50 (CCRF-CEM leukemia): 11.4 µM
TGI (CCRF-CEM leukemia): 24.2 µM
GI50 (DU-145 prostate): 21.6 µM
GI50 (OVCAR-3 ovarian): 41.5 µM
GI50 (CAKI-1 renal): 33.3 µM
GI50 (M14 melanoma): 25.8 µM
GI50 (BT-549 breast): 40 µM
GI50 (HT29 colon): 91.5 µM
GI50 (NCI-H23 lung): 34.7 µM
GI50 (RPMI-8226 leukemia): 17 µM
GI50 (HOP-62 NSCLC): 13.6 µM
TGI (HOP-62 NSCLC): 42.3 µM
GI50 (MOLT-4 leukemia): 1.61 µM
TGI (MOLT-4 leukemia): 3 µM
GI50 (NCI-H522 lung): 32.7 µM
GI50 (HS 578T breast): 22.5 µM
GI50 (KM12 colon): 88.1 µM
GI50 (LOX IMVI melanoma): 39.9 µM
GI50 (MCF7 breast): 30.9 µM
GI50 (U251 glioblastoma): 24 µM
GI50 (HCT-116 colon): 26.5 µM
GI50 (SNB-19 CNS): 63 µM

C[C@H](c1ccc(F)cc1CCCC(=O)O)N(c1cc(F)ccc1F)S(=O)(=O)c1ccc(Cl)cc1
GI50 (OVCAR-8 ovarian): 32.1 µM
TGI (OVCAR-8 ovarian): > 100 µM
GI50 (UACC-257 melanoma): 13.6 µM
TGI (UACC-257 melanoma): 68.4 µM
GI50 (HL-60(TB) leukemia): 19.1 µM
TGI (HL-60(TB) leukemia): 33.6 µM
GI50 (HCT-15 colon): 22.4 µM
TGI (HCT-15 colon): 95.5 µM
GI50 (ACHN renal): 30.4 µM
TGI (ACHN renal): > 100 µM
GI50 (A549 NSCLC): 16.1 µM
TGI (A549 NSCLC): 46.2 µM
GI50 (SF-268 CNS): 14 µM
TGI (SF-268 CNS): 34.2 µM
GI50 (RXF 393 renal): 27.9 µM
TGI (RXF 393 renal): > 100 µM
GI50 (NCI-H226 lung): 25.2 µM
TGI (NCI-H226 lung): 76 µM
GI50 (UACC-62 melanoma): 16.9 µM
TGI (UACC-62 melanoma): 40.4 µM
GI50 (SF-539 CNS): 23.8 µM
TGI (SF-539 CNS): 66.2 µM
GI50 (SK-MEL-28 melanoma): 46 µM
TGI (SK-MEL-28 melanoma): > 100 µM
GI50 (SN12C renal): 28.8 µM
TGI (SN12C renal): > 100 µM
GI50 ([…]-0 renal): 28.9 µM
TGI (786-0 renal): > 100 µM
GI50 (NCI-H460 NSCLC): 17.2 µM
TGI (NCI-H460 NSCLC): 33.8 µM
GI50 (PC-3 prostate): 22.7 µM
TGI (PC-3 prostate): 66.8 µM
GI50 (MDA-MB-468 breast): 5.35 µM
TGI (MDA-MB-468 breast): 30.3 µM
GI50 (SW-620 colon): 32.8 µM
TGI (SW-620 colon): > 100 µM
GI50 (NCI/ADR-RES ovarian): 32 µM
TGI (NCI/ADR-RES ovarian): > 100 µM
GI50 (HCC-2998 colon): 1.41 µM
TGI (HCC-2998 colon): 16.3 µM
GI50 (SK-OV-3 ovarian): 32.8 µM
TGI (SK-OV-3 ovarian): > 100 µM
GI50 (SF-295 CNS): 17.7 µM
TGI (SF-295 CNS): 49.7 µM
GI50 (SNB-75 CNS): 26.2 µM
TGI (SNB-75 CNS): > 100 µM
GI50 (A498 renal): 20.2 µM
TGI (A498 renal): 69.3 µM
GI50 (MALME-3M melanoma): 23.7 µM
TGI (MALME-3M melanoma): > 100 µM
GI50 (UO-31 renal): 15.7 µM
TGI (UO-31 renal): 33 µM
GI50 (NCI-H322M lung): 25.6 µM
TGI (NCI-H322M lung): > 100 µM
GI50 (IGROV1 ovarian): 30.5 µM
TGI (IGROV1 ovarian): > 100 µM
GI50 (CCRF-CEM leukemia): 12.3 µM
TGI (CCRF-CEM leukemia): 26.5 µM
GI50 (EKVX NSCLC): 21.6 µM
TGI (EKVX NSCLC): 63.1 µM
GI50 (MDA-MB-435 melanoma): 24 µM
TGI (MDA-MB-435 melanoma): 53.8 µM
GI50 (DU-145 prostate): 28.2 µM
TGI (DU-145 prostate): > 100 µM
GI50 (OVCAR-3 ovarian): 17.9 µM
TGI (OVCAR-3 ovarian): 38 µM
GI50 (CAKI-1 renal): 45.9 µM
TGI (CAKI-1 renal): > 100 µM
GI50 (M14 melanoma): 21.4 µM
TGI (M14 melanoma): 70.5 µM
GI50 (OVCAR-5 ovarian): 38.5 µM
TGI (OVCAR-5 ovarian): > 100 µM
GI50 (T-47D breast): 2.26 µM
TGI (T-47D breast): 26.6 µM
GI50 (BT-549 breast): 18.8 µM
TGI (BT-549 breast): 42 µM
GI50 (K-562 leukemia): 27.1 µM
TGI (K-562 leukemia): > 100 µM
GI50 (HT29 colon): 31.3 µM
TGI (HT29 colon): > 100 µM
GI50 (MDA-MB-231 breast): 34 µM
TGI (MDA-MB-231 breast): > 100 µM
GI50 (HOP-92 NSCLC): 13.5 µM
TGI (HOP-92 NSCLC): 44.6 µM
GI50 (NCI-H23 lung): 14.9 µM
TGI (NCI-H23 lung): 41.6 µM
GI50 (OVCAR-4 ovarian): 26 µM
TGI (OVCAR-4 ovarian): > 100 µM
GI50 (RPMI-8226 leukemia): 19.4 µM
TGI (RPMI-8226 leukemia): 36.6 µM
GI50 (TK-10 renal): 31.1 µM
TGI (TK-10 renal): > 100 µM
GI50 (HOP-62 NSCLC): 16.4 µM
TGI (HOP-62 NSCLC): 37.1 µM
GI50 (MOLT-4 leukemia): 11.7 µM
TGI (MOLT-4 leukemia): 24.2 µM
GI50 (NCI-H522 lung): 27.9 µM
TGI (NCI-H522 lung): 76.3 µM
GI50 (COLO 205 colon): 30.1 µM
TGI (COLO 205 colon): > 100 µM
GI50 (SK-MEL-5 melanoma): 13.1 µM
TGI (SK-MEL-5 melanoma): 29.7 µM
GI50 (HS 578T breast): 12.2 µM
TGI (HS 578T breast): 33.3 µM
GI50 (KM12 colon): 28.7 µM
TGI (KM12 colon): > 100 µM
GI50 (LOX IMVI melanoma): 19 µM
TGI (LOX IMVI melanoma): 45.6 µM
GI50 (MCF7 breast): 22.7 µM
TGI (MCF7 breast): 88.9 µM
GI50 (U251 glioblastoma): 19.9 µM
TGI (U251 glioblastoma): 49.4 µM
GI50 (HCT-116 colon): 20.2 µM
TGI (HCT-116 colon): 43.8 µM
GI50 (SNB-19 CNS): 35.9 µM
TGI (SNB-19 CNS): > 100 µM
